Usually Emax stands for the size of the effect at its maximum, as opposed to the concentration needed. The EC50 is the concentration that produces a half-maximal response. A low value points to higher potency in that assay.

Experimental findings from US20230061736A1, “GPR119 AGONISTS” (Kallyope, Inc., priority 2019, published 2023) are described below.

The experiment concerns the target T1, human GPR119 (hGPR119) (Homo sapiens, UniProt Q8TDV5).
T1 construct: expressed in transfected cells
T1 sequence (Q8TDV5 1-335): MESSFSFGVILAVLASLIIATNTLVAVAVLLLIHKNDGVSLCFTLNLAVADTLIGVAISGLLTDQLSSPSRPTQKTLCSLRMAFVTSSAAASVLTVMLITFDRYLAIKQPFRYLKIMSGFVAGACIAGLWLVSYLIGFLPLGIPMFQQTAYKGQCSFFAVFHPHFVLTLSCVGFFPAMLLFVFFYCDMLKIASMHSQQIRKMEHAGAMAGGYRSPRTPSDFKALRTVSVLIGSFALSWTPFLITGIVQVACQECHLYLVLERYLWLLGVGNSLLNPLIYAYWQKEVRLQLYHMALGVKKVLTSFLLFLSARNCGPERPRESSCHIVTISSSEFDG
The experiment in a line: cAMP accumulation assay (cAMP Gs dynamic HTRF kit). Conditions: CHO-K1 cells stably expressing hGPR119, 4-parameter fit; for Emax: 1 h, % activity normalized to Max/Min controls; for EC50: cAMP accumulation. Format: cell-based. Here is the method: CHO-K1 cells stably expressing human GPR119 (hGPR119) were prepared by transfection of a GPR119-carrying plasmid using Lipofectamine 2000 (following manufacturer instructions). A stable cell line was established using the limiting dilution method with geneticine selection. Assay-ready frozen (ARF) cells were prepared and used throughout the study.
The assay was performed in a 384-well plate format using the cAMP Gs dynamic assay kit from Cisbio. ARF cells expressing hGPR119 were thawed, washed and then resuspended in cAMP stimulation buffer at a cell density of 1.1×10^6 cells/mL. Cells were plated at a density of ˜10,000 cells/well (9 μL/well). Dose response curves for the tested compounds were prepared in a cAMP stimulation buffer, containing 0.1% Tween 80 at 4 fold the final concentration. The compounds were then transferred to the cell plates using BRAVO (3 μL/well) and the plates were incubated for 60 minutes at 37° C./5% CO2. Detection buffer (10 μL, prepared as described in the cAMP Gs dynamic kit) were added to each well, and the plates were incubated at ambient temperature for 1 hr.
RT-FRET was measured using a ClarioSTAR plate reader, calculating the ratio between emissions at 665 nm and 620 nm (HTRF ratio). The HTRF ratio for positive (Max) and negative (Min) controls were used to normalize HTRF data and generate values for % activity. EC50 and Max activity values were determined using a standard 4-parameter fit.
(Changes in cAMP serve as a functional read-out for many G protein-coupled receptors.)

Structures are written as SMILES.

Turning to `CCCc1cnc(N2CCC(CCCOc3cc(F)c(CC(=O)NCCCCC[N+](CC)(CC)CC)c(F)c3)CC2)nc1` [Example 4, 5-[[2-[2,6-difluoro-4-[3-[1-(5-propylpyrimidin-2-yl)-4-piperidyl]propoxy]phenyl]acetyl]amino] pentyl-triethyl-ammonium], the Emax lay within 100 to 130% and the EC50 is 100 to 1000 nM.
The corresponding values for `O=C(Cc1ccc(OCCCC2CCN(c3ncc(Cl)cn3)CC2)cc1F)NC(CO)(CO)CO` [Example 5, 2-[4-[3-[1-(5-chloropyrimidin-2-yl)-4-piperidyl]propoxy]-2-fluoro-phenyl]-N-[2-hydroxy-1,1-bis(hydroxymethyl)ethyl]acetamide] are 100 to 130% and 100 to 1000 nM.
Regarding `O=C(Cc1c(F)cc(OCCCC2CCN(c3ncc(Cl)cn3)CC2)cc1F)NC(CO)(CO)CO` [Example 6, 2-[4-[3-[1-(5-chloropyrimidin-2-yl)-4-piperidyl]propoxy]-2,6-difluoro-phenyl]-N-[2-hydroxy-1,1-bis(hydroxymethyl)ethyl]acetamide], the Emax lay in the range of 100 to 130% and the EC50 was 100 to 1000 nM.
With `CCc1cnc(N2CCC(CCCOc3cc(F)c(CC(=O)NC(CO)(CO)CO)c(F)c3)CC2)nc1` [Example 7, 2-[4-[3-[1-(5-ethylpyrimidin-2-yl)-4-piperidyl]propoxy]-2,6-difluoro-phenyl]-N-[2-hydroxy-1,1-bis(hydroxymethyl)ethyl]acetamide], the Emax was 100 to 130% and the EC50 is no more than 100 nM.
`CCCc1cnc(N2CCC(CCCOc3cc(F)c(CC(=O)NC(CO)(CO)CO)c(F)c3)CC2)nc1` [Example 8, 2-[2,6-difluoro-4-[3-[1-(5-propylpyrimidin-2-yl)-4-piperidyl]propoxy]phenyl]-N-[2-hydroxy-1,1-bis(hydroxymethyl)ethyl]acetamide] returned an Emax of 100 to 130% and an EC50 of no more than 100 nM.
In turn, `O=C(Cc1ccc(OCCCC2CCN(c3ncc(Cl)cn3)CC2)cc1F)N1CC(CO)(CO)C1` [Example 9, 1-[3,3-bis(hydroxymethyl)azetidin-1-yl]-2-[4-[3-[1-(5-chloropyrimidin-2-yl)-4-piperidyl]propoxy]-2-fluoro-phenyl]ethanone] displayed an Emax of 100 to 130% and an EC50 of no more than 100 nM.
For `O=C(Cc1ccc(OCCCC2CCN(c3ncc(Cl)cn3)CC2)cc1F)NCCS(=O)(=O)O` [Example 10, 2-[[2-[4-[3-[1-(5-chloropyrimidin-2-yl)-4-piperidyl]propoxy]-2-fluoro-phenyl]acetyl]amino]ethanesulfonic acid], in that order: no less than 130% and 1000 to 10000 nM.
For `O=C(Cc1ccc(OCCCC2CCN(c3ncc(Cl)cn3)CC2)cc1F)NCCCS(=O)(=O)O` [Example 11, 3-[[2-[4-[3-[1-(5-chloropyrimidin-2-yl)-4-piperidyl]propoxy]-2-fluoro-phenyl]acetyl]amino]propane-1-sulfonic acid], the Emax was no less than 130% and the EC50 lay in the range of 1000 to 10000 nM.
Turning to `O=C(Cc1ccc(OCCCC2CCN(c3ncc(Cl)cn3)CC2)cc1F)NCCCCS(=O)(=O)O` [Example 12, 4-[[2-[4-[3-[1-(5-chloropyrimidin-2-yl)-4-piperidyl]propoxy]-2-fluoro-phenyl]acetyl]amino]butane-1-sulfonic acid], the Emax is no less than 130% and the EC50 was 1000 to 10000 nM.
`NS(=O)(=O)CCCNC(=O)Cc1ccc(OCCCC2CCN(c3ncc(Cl)cn3)CC2)cc1F` [Example 13, 2-[4-[3-[1-(5-chloropyrimidin-2-yl)-4-piperidyl]propoxy]-2-fluoro-phenyl]-N-(3-sulfamoylpropyl)acetamide] gave an Emax of no less than 130% and an EC50 of no more than 100 nM.
As to `NS(=O)(=O)CCCCNC(=O)Cc1ccc(OCCCC2CCN(c3ncc(Cl)cn3)CC2)cc1F` [Example 14, 2-[4-[3-[1-(5-chloropyrimidin-2-yl)-4-piperidyl]propoxy]-2-fluoro-phenyl]-N-(4-sulfamoylbutyl)acetamide], the Emax is no less than 130% and the EC50 is no more than 100 nM.
`CCc1cnc(N2CCC(CCCOc3ccc(CC(=O)NCCC[N+](C)(C)C)c(F)c3)CC2)nc1` [Example 15, 3-[[2-[4-[3-[1-(5-ethylpyrimidin-2-yl)-4-piperidyl]propoxy]-2-fluoro-phenyl]acetyl]amino]propyl-trimethyl-ammonium] displayed an Emax of 100 to 130% and an EC50 of 100 to 1000 nM.
In turn, `O=C(Cc1ccc(OCCCC2CCN(c3ncc(Cl)cn3)CC2)cc1F)NCCCCCC(=O)NC(CO)CO` [Example 17, 6-[[2-[4-[3-[1-(5-chloropyrimidin-2-yl)-4-piperidyl]propoxy]-2-fluoro-phenyl]acetyl]amino]-N-[2-hydroxy-1-(hydroxymethyl)ethyl]hexanamide] returned a maximum response (Emax) of no less than 130% and a concentration giving a half-maximal response (EC50) of 100 to 1000 nM.
Compound `O=C(Cc1ccc(OCCCC2CCN(c3ncc(Cl)cn3)CC2)cc1F)NCCCCCC(=O)NC(CO)(CO)CO` [Example 18, 6-[[2-[4-[3-[1-(5-chloropyrimidin-2-yl)-4-piperidyl]propoxy]-2-fluoro-phenyl]acetyl]amino]-N-[2-hydroxy-1,1-bis(hydroxymethyl)ethyl]hexanamide] showed an Emax of 100 to 130% and an EC50 of 100 to 1000 nM.
As for `O=C(Cc1ccc(OCCCC2CCN(c3ncc(Cl)cn3)CC2)cc1F)NCCC(=O)NC(CO)CO` [Example 19, 3-[[2-[4-[3-[1-(5-chloropyrimidin-2-yl)-4-piperidyl]propoxy]-2-fluoro-phenyl]acetyl]amino]-N-[2-hydroxy-1-(hydroxymethyl)ethyl]propanamide], the Emax was 100 to 130% and the EC50 was in the range of 100 to 1000 nM.
For the compound `O=C(Cc1ccc(OCCCC2CCN(c3ncc(Cl)cn3)CC2)cc1F)NCCC(=O)NC(CO)(CO)CO` [Example 20, 3-[[2-[4-[3-[1-(5-chloropyrimidin-2-yl)-4-piperidyl]propoxy]-2-fluoro-phenyl]acetyl]amino]-N-[2-hydroxy-1,1-bis(hydroxymethyl)ethyl]propanamide], the Emax is no less than 130% and the EC50 is 100 to 1000 nM.
As to `O=C(Cc1ccc(OCCCC2CCN(c3ncc(Cl)cn3)CC2)cc1F)NCCCC(=O)NC(CO)CO` [Example 21, 4-[[2-[4-[3-[1-(5-chloropyrimidin-2-yl)-4-piperidyl]propoxy]-2-fluoro-phenyl]acetyl]amino]-N-[2-hydroxy-1-(hydroxymethyl)ethyl]butanamide], the Emax is no less than 130% and the EC50 lay within 100 to 1000 nM.
The corresponding values for `O=C(Cc1ccc(OCCCC2CCN(c3ncc(Cl)cn3)CC2)cc1F)NCCCC(=O)NC(CO)(CO)CO` [Example 22, 4-[[2-[4-[3-[1-(5-chloropyrimidin-2-yl)-4-piperidyl]propoxy]-2-fluoro-phenyl]acetyl]amino]-N-[2-hydroxy-1,1-bis(hydroxymethyl)ethyl]butanamide] are no less than 130% and 100 to 1000 nM.
`O=C(Cc1ccc(OCCCC2CCN(c3ncc(Cl)cn3)CC2)cc1F)NCCCCC(=O)NC(CO)CO` [Example 23, 5-[[2-[4-[3-[1-(5-chloropyrimidin-2-yl)-4-piperidyl]propoxy]-2-fluoro-phenyl]acetyl]amino]-N-[2-hydroxy-1-(hydroxymethyl)ethyl]pentanamide] came in with an Emax of no less than 130% and an EC50 of 100 to 1000 nM.
`O=C(Cc1ccc(OCCCC2CCN(c3ncc(Cl)cn3)CC2)cc1F)NCCCCC(=O)NC(CO)(CO)CO` [Example 24, 5-[[2-[4-[3-[1-(5-chloropyrimidin-2-yl)-4-piperidyl]propoxy]-2-fluoro-phenyl]acetyl]amino]-N-[2-hydroxy-1,1-bis(hydroxymethyl)ethyl]pentanamide]: the Emax is no less than 130% and the EC50 fell in the range of 100 to 1000 nM.
As for `O=C(Cc1ccc(OCCCC2CCN(c3ncc(Cl)cn3)CC2)cc1F)NCCCCCC(=O)N1C[C@H](O)[C@@H](O)C1` [Example 25, 2-[4-[3-[1-(5-chloropyrimidin-2-yl)-4-piperidyl]propoxy]-2-fluoro-phenyl]-N-[6-[(3S,4S)-3,4-dihydroxypyrrolidin-1-yl]-6-oxo-hexyl]acetamide], the Emax is no less than 130% and the EC50 fell in the range of 100 to 1000 nM.
The corresponding values for `O=C(NC(CO)(CO)CO)C1CN(C(=O)Cc2c(F)cc(OCCCC3CCN(c4ncc(Cl)cn4)CC3)cc2F)C1` [Example 26, 1-[2-[4-[3-[1-(5-chloropyrimidin-2-yl)-4-piperidyl]propoxy]-2,6-difluoro-phenyl]acetyl]-N-[2-hydroxy-1,1-bis(hydroxymethyl)ethyl]azetidine-3-carboxamide] are no less than 130% and no more than 100 nM.
